Test results taken from patent US9914731B2, “Pyrazolo[1,5-a]pyridine derivatives and methods of their use” (Ignyta, Inc., priority 2013, dated 2018).

biological target: recombinant human baculovirus-expressed cMET (Homo sapiens (Human), UniProt P08581); assay: c-MET kinase assay (HTRF KinEASE); type: biochemical; conditions: average of two or more determinations; read-out: c-MET IC50

SMILES	IC50
CCn1cc(C(=O)Nc2ccc(Oc3cc(Nc4ncccn4)cn4nccc34)c(F)c2)c(=O)n(-c2ccc(F)cc2)c1=O [Example 84, 1-Ethyl-3-(4-fluoro-phenyl)-2,4-dioxo-1,2,3,4-tetrahydro-pyrimidine-5-carboxylic acid{3-fluoro-4-[6-(pyrimidin-2-ylamino)-pyrazolo[1,5-a]pyridin-4-yloxy]-phenyl}-amide]	10 to 100 nM
CC(C)n1cc(C(=O)Nc2ccc(Oc3cc(Nc4ncccn4)cn4nccc34)c(F)c2)c(=O)n(-c2ccc(F)cc2)c1=O [Example 85, 3-(4-Fluoro-phenyl)-1-isopropyl-2,4-dioxo-1,2,3,4-tetrahydro-pyrimidine-5-carboxylic acid{3-fluoro-4-[6-(pyrimidin-2-ylamino)-pyrazolo[1,5-a]pyridin-4-yloxy]-phenyl}-amide]	< 10 nM
CCn1cc(C(=O)Nc2ccc(Oc3cc(Nc4ccccn4)cn4nccc34)c(F)c2)c(=O)n(-c2ccc(F)cc2)c1=O [Example 86, 1-Ethyl-3-(4-fluoro-phenyl)-2,4-dioxo-1,2,3,4-tetrahydro-pyrimidine-5-carboxylic acid{3-fluoro-4-[6-(pyridin-2-ylamino)-pyrazolo[1,5-a]pyridin-4-yloxy]-phenyl}-amide]	10 to 100 nM
CC(C)n1cc(C(=O)Nc2ccc(Oc3cc(Nc4ccccn4)cn4nccc34)c(F)c2)c(=O)n(-c2ccc(F)cc2)c1=O [Example 87, 3-(4-Fluoro-phenyl)-1-isopropyl-2,4-dioxo-1,2,3,4-tetrahydro-pyrimidine-5-carboxylic acid{3-fluoro-4-[6-(pyridin-2-ylamino)-pyrazolo[1,5-a]pyridin-4-yloxy]-phenyl}-amide]	10 to 100 nM
Cn1cc(-c2cc(Oc3ccc(NC(=O)c4cccn(-c5ccc(F)cc5)c4=O)cn3)c3ccnn3c2)cn1 [Example 89, 1-(4-Fluoro-phenyl)-2-oxo-1,2-dihydro-pyridine-3-carboxylic acid{6-[6-(1-methyl-1H-pyrazol-4-yl)-pyrazolo[1,5-a]pyridin-4-yloxy]-pyridin-3-yl}-amide]	< 10 nM
Cn1ccnc1-c1cc(Oc2ccc(NC(=O)c3cccn(-c4ccc(F)cc4)c3=O)cc2F)c2ccnn2c1 [Example 90, 1-(4-Fluoro-phenyl)-2-oxo-1,2-dihydro-pyridine-3-carboxylic acid{3-fluoro-4-[6-(1-methyl-1H-imidazol-2-yl)-pyrazolo[1,5-a]pyridin-4-yloxy]-phenyl}-amide]	< 10 nM
Cn1cnc(-c2cc(Oc3ccc(NC(=O)c4cn(CCO)c(=O)n(-c5ccc(F)cc5)c4=O)cc3F)c3ccnn3c2)c1 [Example 97, 3-(4-Fluoro-phenyl)-1-(2-hydroxy-ethyl)-2,4-dioxo-1,2,3,4-tetrahydro-pyrimidine-5-carboxylic acid{3-fluoro-4-[6-(1-methyl-1H-imidazol-4-yl)-pyrazolo[1,5-a]pyridin-4-yloxy]-phenyl}-amide]	< 10 nM
Cc1ccc(C(=O)Nc2ccc(Oc3cc(-c4ncco4)cn4nccc34)c(F)c2)c(=O)n1-c1ccc(F)cc1 [Example 98, 1-(4-Fluoro-phenyl)-6-methyl-2-oxo-1,2-dihydro-pyridine-3-carboxylic acid [3-fluoro-4-(6-oxazol-2-yl-pyrazolo[1,5-a]pyridin-4-yloxy)-phenyl]-amide]	< 10 nM
CCn1cc(C(=O)Nc2ccc(Oc3cc(-c4cncn4C)cn4nccc34)c(F)c2)c(=O)n(-c2ccc(F)cc2)c1=O [Example 100, 1-Ethyl-3-(4-fluoro-phenyl)-2,4-dioxo-1,2,3,4-tetrahydro-pyrimidine-5-carboxylic acid{3-fluoro-4-[6-(3-methyl-3H-imidazol-4-yl)-pyrazolo[1,5-a]pyridin-4-yloxy]-phenyl}-amide]	< 10 nM
O=C(Nc1ccc(Oc2cc(-c3cncs3)cn3nccc23)c(F)c1)c1cccn(-c2ccc(F)cc2)c1=O [Example 105, 1-(4-Fluoro-phenyl)-2-oxo-1,2-dihydro-pyridine-3-carboxylic acid[3-fluoro-4-(6-thiazol-5-yl-pyrazolo[1,5-a]pyridin-4-yloxy)-phenyl]-amide]	< 10 nM
CC(C)n1cc(C(=O)Nc2ccc(Oc3cc(-c4cscn4)cn4nccc34)c(F)c2)c(=O)n(-c2ccc(F)cc2)c1=O [Example 106, 3-(4-Fluoro-phenyl)-1-isopropyl-2,4-dioxo-1,2,3,4-tetrahydro-pyrimidine-5-carboxylic acid[3-fluoro-4-(6-thiazol-4-yl-pyrazolo[1,5-a]pyridin-4-yloxy)-phenyl]-amide]	< 10 nM
Cn1cnc(-c2cc(Oc3ccc(NC(=O)C4(C(=O)Nc5ccc(F)cc5)CC4)cc3F)c3ccnn3c2)c1 [Example 108, Cyclopropane-1,1-dicarboxylic acid{3-fluoro-4-[6-(1-methyl-1H-imidazol-4-yl)-pyrazolo[1,5-a]pyridin-4-yloxy]-phenyl}-amide(4-fluoro-phenyl)-amide]	< 10 nM
CCn1cc(C(=O)Nc2ccc(Oc3cc(-c4cn(C)cn4)cn4nccc34)c(C)c2)c(=O)n(-c2ccc(F)cc2)c1=O [Example 109, 1-Ethyl-3-(4-fluoro-phenyl)-2,4-dioxo-1,2,3,4-tetrahydro-pyrimidine-5-carboxylic acid{3-methyl-4-[6-(1-methyl-1H-imidazol-4-yl)-pyrazolo[1,5-a]pyridin-4-yloxy]-phenyl}-amide]	< 10 nM
CCOc1ccn(-c2ccc(F)cc2)c(=O)c1C(=O)Nc1ccc(Oc2cc(-c3cn(C)cn3)cn3nccc23)c(F)c1 [Example 112, 4-Ethoxy-1-(4-fluoro-phenyl)-2-oxo-1,2-dihydro-pyridine-3-carboxylic acid {3-fluoro-4-[6-(1-methyl-1H-imidazol-4-yl)-pyrazolo[1,5-a]pyridin-4-yloxy]-phenyl}-amide]	< 10 nM
CCn1cc(C(=O)Nc2ccc(Oc3cc(-c4cn(C)cn4)cn4nccc34)nc2)c(=O)n(-c2ccc(F)cc2)c1=O [Example 115, 1-Ethyl-3-(4-fluoro-phenyl)-2,4-dioxo-1,2,3,4-tetrahydro-pyrimidine-5-carboxylic acid{6-[6-(1-methyl-1H-imidazol-4-yl)-pyrazolo[1,5-a]pyridin-4-yloxy]-pyridin-3-yl}-amide]	< 10 nM
CC(C)n1cc(C(=O)Nc2ccc(Oc3cc(-c4cn(C)cn4)cn4nccc34)nc2)c(=O)n(-c2ccc(F)cc2)c1=O [Example 116, 3-(4-Fluoro-phenyl)-1-isopropyl-2,4-dioxo-1,2,3,4-tetrahydro-pyrimidine-5-carboxylic acid{6-[6-(1-methyl-1H-imidazol-4-yl)-pyrazolo[1,5-a]pyridin-4-yloxy]-pyridin-3-yl}-amide]	< 10 nM
CCOc1ccn(-c2ccc(F)cc2)c(=O)c1C(=O)Nc1ccc(Oc2cc(-c3cn(C)cn3)cn3nccc23)cc1 [Example 118, 4-Ethoxy-1-(4-fluoro-phenyl)-2-oxo-1,2-dihydro-pyridine-3-carboxylic acid {4-[6-(1-methyl-1H-imidazol-4-yl)-pyrazolo[1,5-a]pyridin-4-yloxy]-phenyl}-amide]	< 10 nM
CCn1cc(C(=O)Nc2ccc(Oc3cc(-c4cn(C)cn4)cn4nccc34)c(OCc3ccccc3)c2)c(=O)n(-c2ccc(F)cc2)c1=O [Example 119]	10 to 100 nM
CCn1cc(C(=O)Nc2ccc(Oc3cc(-c4cn(C)cn4)cn4nccc34)c(O)c2)c(=O)n(-c2ccc(F)cc2)c1=O [Example 120, 1-Ethyl-3-(4-fluoro-phenyl)-2,4-dioxo-1,2,3,4-tetrahydro-pyrimidine-5-carboxylic acid{3-hydroxy-4-[6-(1-methyl-1H-imidazol-4-yl)-pyrazolo[1,5-a]pyridin-4-yloxy]-phenyl}-amide]	10 to 100 nM
CC(C)n1cc(C(=O)Nc2ccc(Oc3cc(-c4cn(C)cn4)cn4nccc34)c(OCc3ccccc3)c2)c(=O)n(-c2ccc(F)cc2)c1=O [Example 121, 3-(4-Fluoro-phenyl)-1-isopropyl-2,4-dioxo-1,2,3,4-tetrahydro-pyrimidine-5-carboxylic acid {3-benzyloxy-4-[6-(1-methyl-1H-imidazol-4-yl)-pyrazolo[1,5-a]pyridine-4-yloxy]-phenyl}-amide]	10 to 100 nM
CC(C)n1cc(C(=O)Nc2ccc(Oc3cc(-c4cn(C)cn4)cn4nccc34)c(O)c2)c(=O)n(-c2ccc(F)cc2)c1=O [Example 122, 3-(4-Fluoro-phenyl)-1-isopropyl-2,4-dioxo-1,2,3,4-tetrahydro-pyrimidine-5-carboxylic acid{3-hydroxy-4-[6-(1-methyl-1H-imidazol-4-yl)-pyrazolo[1,5-a]pyridin-4-yloxy]-phenyl}-amide]	10 to 100 nM
CCCCCn1cc(C(=O)Nc2ccc(Oc3cc(-c4cn(C)cn4)cn4nccc34)c(F)c2)c(=O)n(-c2ccc(F)cc2)c1=O [Example 123, 3-(4-Fluoro-phenyl)-2,4-dioxo-1-pentyl-1,2,3,4-tetrahydro-pyrimidine-5-carboxylic acid{3-fluoro-4-[6-(1-methyl-1H-imidazol-4-yl)-pyrazolo[1,5-a]pyridin-4-yloxy]-phenyl}-amide]	< 10 nM
CCn1cc(C(=O)Nc2ccc(Oc3cc(-c4cn(C)cn4)cn4nccc34)c(C(F)(F)F)c2)c(=O)n(-c2ccc(F)cc2)c1=O [Example 125, 1-Ethyl-3-(4-fluoro-phenyl)-2,4-dioxo-1,2,3,4-tetrahydro-pyrimidine-5-carboxylic acid {4-[6-(1-methyl-1H-imidazol-4-yl)-pyrazolo[1,5-a]pyridin-4-yloxy]-3-trifluoromethyl-phenyl}-amide]	< 10 nM
CC(C)n1cc(C(=O)Nc2ccc(Oc3cc(-c4cn(C)cn4)cn4nccc34)c(C(F)(F)F)c2)c(=O)n(-c2ccc(F)cc2)c1=O [Example 126, 3-(4-Fluoro-phenyl)-1-isopropyl-2,4-dioxo-1,2,3,4-tetrahydro-pyrimidine-5-carboxylic acid{4-[6-(1-methyl-1H-imidazol-4-yl)-pyrazolo[1,5-a]pyridin-4-yloxy]-3-trifluoromethyl-phenyl}-amide]	10 to 100 nM

same assay, conditions: read-out: c-MET IC50

SMILES	IC50
CC(C)n1cc(C(=O)Nc2ccc(Oc3cc(-c4ncco4)cn4nccc34)c(F)c2)c(=O)n(-c2ccc(F)cc2)c1=O [Example 99, 3-(4-Fluoro-phenyl)-1-isopropyl-2,4-dioxo-1,2,3,4-tetrahydro-pyrimidine-5-carboxylic acid[3-fluoro-4-(6-oxazol-2-yl-pyrazolo[1,5-a]pyridin-4-yloxy)-phenyl]-amide]	< 10 nM
